Experimental data from patent publication US20260308185A1, “STAT DEGRADERS AND USES THEREOF” (Recludix Pharma, Inc., priority 2023, published 2026).

test system: pSTAT6 (pY641-STAT6) in PBMC; assay: MSD-pSTAT-PBMC Assay (pSTAT6); type: cell-based; details: compound 3 hrs, then 1 ng/mL IL-4 for 10 min
Text: Cryopreserved Peripheral Blood Mononuclear Cells (PBMC) are from AllCells. Recombinant Human […] and IL-6 are from Peprotech. Mouse monoclonal anti-STAT3 antibody, rabbit monoclonal anti-pY705-STAT3 antibody, rabbit monoclonal Anti-pY641-STAT6 antibody, and lysis buffer are from Cell Signaling Technology (CST). Mouse monoclonal anti-STAT6 antibody is from BioLegend. Assay plates, blocker, and anti-rabbit secondary antibody are from Meso Scale Discovery (MSD).
Cryopreserved PBMCs were thawed out and allowed to recover overnight in IMDM+10% heat-inactivated FBS prior to plating 50,000 (STAT3) or 25,000 (STAT6) cells per well in 96-well U-bottom tissue culture plates. Cells were treated with compound for 3 hrs, then stimulated with 10 ng/mL IL-6 (STAT3) or 1 ng/mL IL-4 (STAT6) for 10 min. Cells were then spun down and washed with ice-cold PBS prior to lysing the cell pellet with 1× lysis buffer (CST) with 1× HALT protease and phosphatase inhibitor cocktail (Thermo). Lysates were transferred to and incubated overnight at 4° C. with shaking in QuickPlex 96-well high bind assay plates (MSD) pre-coated overnight with 30 μL per well of 0.6 μg/mL mouse monoclonal anti-STAT3 antibody (STAT3) or 2 μg/mL mouse monoclonal anti-STAT6 antibody (STAT6) in 1×PBS, and pre-blocked for 1 hour with 3% Blocker-A (MSD). Captured protein in the assay plates were then washed and probed with 25 μL per well of 0.25 μg/ml rabbit monoclonal anti-pY705-STAT3 antibody (STAT3) or 0.18 μg/ml rabbit monoclonal Anti-pY641-STAT6 antibody (STAT6) in 1% Blocker-A for 1 hour at room temperature with shaking, then washed and probed with 25 ul per well of 1 ug/ml Sulfo-TAG Labeled Goat Anti-Rabbit Antibody (MSD) in 1% Blocker-A for 1 hour at room temperature with shaking. Assay plates were then washed and 150 μL of 1× Read Buffer-T (MSD) was added to each well prior to reading on an SQ120 MSD Plate Reader. Assay signal from each sample was subtracted by the signal from unstimulated control wells and normalized to DMSO control wells, IC50 values were calculated using Graph Pad Prism Dose-Response Nonlinear Regression with variable slope. For both pSTAT3 and pSTAT6 A=≤100 nM; B=>100-1000 nM; C=>1000-3000 nM; and D=>3 μM.

Q: Which IC50 does the source give for CCCC(=O)SCCOP(=O)(OCCSC(=O)CCC)C(F)(F)c1ccc2sc(C(=O)NC3CC4CC4CC4CCC(C(=O)N5CC(c6ccn(C7CCN(c8ccc9c(c8)[nH]c(=O)n9C8CCC(=O)NC8=O)CC7)c(=O)c6)CC56CC6)N4C3=O)cc2c1 [Compound 20, S,S′-(((((2-(((3S,6S,7aS,8aR,9aR)-3-((6R)-6-(1-(1-(1-(2,6-dioxopiperidin-3-yl)-2-oxo-2,3-dihydro-1H-benzo[d]imidazol-5-yl)piperidin-4-yl)-2-oxo-1,2-dihydropyridin-4-yl)-4-azaspiro[2.4]heptane-4-carbonyl)-5-oxodecahydro-1H-cyclopropa[d]pyrrolo[1,2-a]azocin-6-yl)carbamoyl)benzo[b]thiophen-5-yl)difluoromethyl)phosphoryl)bis(oxy))bis(ethane-2,1-diyl)) dibutanethioate] here?
A: 100 to 1000 nM

Q: Which IC50 does the source give for CCCC(=O)SCCOP(=O)(OCCSC(=O)CCC)C(F)(F)c1ccc2sc(C(=O)NC3CC4CC4CC4CCC(C(=O)N5CC(C#N)C(c6cccc(OCCCCCC#Cc7cccc8c7CN(C7CCC(=O)NC7=O)C8=O)c6)C5)N4C3=O)cc2c1 [Compound 8, S,S′-(((((2-(((3S,6S,7aS,8aR,9aR)-3-((rel-3S,4R)-3-cyano-4-(3-((7-(2-(2,6-dioxopiperidin-3-yl)-1-oxoisoindolin-4-yl)hept-6-yn-1-yl)oxy)phenyl)pyrrolidine-1-carbonyl)-5-oxodecahydro-1H-cyclopropa[d]pyrrolo[1,2-a]azocin-6-yl)carbamoyl)benzo[b]thiophen-5-yl)difluoromethyl)phosphoryl)bis(oxy))bis(ethane-2,1-diyl)) dibutanethioate] here?
A: < 100 nM

Q: How did the IC50 turn out when CCCC(=O)SCCOP(=O)(OCCSC(=O)CCC)C(F)(F)c1ccc2sc(C(=O)NC3CC4CC4CC4CCC(C(=O)N5CC(c6ccn(CCCCCCC#Cc7cccc8c7CN(C7CCC(=O)NC7=O)C8=O)c(=O)c6)CC56CC6)N4C3=O)cc2c1 [Compound 6, S,S′-(((((2-(((3S,6S,7aS,8aR,9aR)-3-((6R)-6-(1-(8-(2-(2,6-dioxopiperidin-3-yl)-1-oxoisoindolin-4-yl)oct-7-yn-1-yl)-2-oxo-1,2-dihydropyridin-4-yl)-4-azaspiro[2.4]heptane-4-carbonyl)-5-oxodecahydro-1H-cyclopropa[d]pyrrolo[1,2-a]azocin-6-yl)carbamoyl)benzo[b]thiophen-5-yl)difluoromethyl)phosphoryl)bis(oxy))bis(ethane-2,1-diyl)) dibutanethioate] was run?
A: < 100 nM

Q: For CCCC(=O)SCCOP(=O)(OCCSC(=O)CCC)C(F)(F)c1ccc2sc(C(=O)NC3CC4CC4CC4CCC(C(=O)N5CC(C#N)C(c6cccc(N7CCN(c8ccc9c(c8)[nH]c(=O)n9C8CCC(=O)NC8=O)CC7)c6)C5)N4C3=O)cc2c1 [Compound 14, S,S′-(((((2-(((3S,6S,7aS,8aR,9aR)-3-((rel-3S,4R)-3-cyano-4-(3-(4-(1-(2,6-dioxopiperidin-3-yl)-2-oxo-2,3-dihydro-1H-benzo[d]imidazol-5-yl)piperazin-1-yl)phenyl)pyrrolidine-1-carbonyl)-5-oxodecahydro-1H-cyclopropa[d]pyrrolo[1,2-a]azocin-6-yl)carbamoyl)benzo[b]thiophen-5-yl)difluoromethyl)phosphoryl)bis(oxy))bis(ethane-2,1-diyl)) dibutanethioate], which IC50 is on record?
A: < 100 nM

Q: Which IC50 does the source give for CCCC(=O)SCCOP(=O)(OCCSC(=O)CCC)C(F)(F)c1ccc2sc(C(=O)NC3CC4CC4CC4CCC(C(=O)N5CC(c6ccn(CCCCCOc7ccc(C8CCC(=O)NC8=O)cc7)c(=O)c6)CC56CC6)N4C3=O)cc2c1 [Compound 9, S,S′-(((((2-(((3S,6S,7aS,8aR,9aR)-3-((6R)-6-(1-(5-(4-(2,6-dioxopiperidin-3-yl)phenoxy)pentyl)-2-oxo-1,2-dihydropyridin-4-yl)-4-azaspiro[2.4]heptane-4-carbonyl)-5-oxodecahydro-1H-cyclopropa[d]pyrrolo[1,2-a]azocin-6-yl)carbamoyl)benzo[b]thiophen-5-yl)difluoromethyl)phosphoryl)bis(oxy))bis(ethane-2,1-diyl)) dibutanethioate] here?
A: < 100 nM

Q: For CCCC(=O)SCCOP(=O)(OCCSC(=O)CCC)C(F)(F)c1ccc2sc(C(=O)NC3CC4CC4CC4CCC(C(=O)N5CC(C#N)C(c6cccc(OCCOCCOc7cccc8c7CN(C7CCC(=O)NC7=O)C8=O)c6)C5)N4C3=O)cc2c1 [Compound 16, S,S′-(((((2-(((3S,6S,7aS,8aR,9aR)-3-((rel-3S,4R)-3-cyano-4-(3-(2-(2-((2-(2,6-dioxopiperidin-3-yl)-1-oxoisoindolin-4-yl)oxy)ethoxy)ethoxy)phenyl)pyrrolidine-1-carbonyl)-5-oxodecahydro-1H-cyclopropa[d]pyrrolo[1,2-a]azocin-6-yl)carbamoyl)benzo[b]thiophen-5-yl)difluoromethyl)phosphoryl)bis(oxy))bis(ethane-2,1-diyl)) dibutanethioate], which IC50 is on record?
A: < 100 nM

Q: CCCC(=O)SCCOP(=O)(OCCSC(=O)CCC)C(F)(F)c1ccc2sc(C(=O)NC3CC4CC4CC4CCC(C(=O)N5CC(C#N)C(c6cccc(OCCCCOc7ccc(C8CCC(=O)NC8=O)cc7)c6)C5)N4C3=O)cc2c1 [Compound 4, S,S′-(((((2-(((3S,6S,7aS,8aR,9aR)-3-((rel-3S,4R)-3-cyano-4-(3-(4-(4-(2,6-dioxopiperidin-3-yl)phenoxy)butoxy)phenyl)pyrrolidine-1-carbonyl)-5-oxodecahydro-1H-cyclopropa[d]pyrrolo[1,2-a]azocin-6-yl)carbamoyl)benzo[b]thiophen-5-yl)difluoromethyl)phosphoryl)bis(oxy))bis(ethane-2,1-diyl)) dibutanethioate] was tested. Which IC50 did it give?
A: 100 to 1000 nM

Q: Which IC50 does the source give for CCCC(=O)SCCOP(=O)(OCCSC(=O)CCC)C(F)(F)c1ccc2sc(C(=O)NC3CC4CC4CC4CCC(C(=O)N5CC(c6ccn(CCOCCOCCOc7cccc8c7CN(C7CCC(=O)NC7=O)C8=O)c(=O)c6)CC56CC6)N4C3=O)cc2c1 [Compound 18, S,S′-(((((2-(((3S,6S,7aS,8aR,9aR)-3-((6R)-6-(1-(2-(2-(2-((2-(2,6-dioxopiperidin-3-yl)-1-oxoisoindolin-4-yl)oxy)ethoxy)ethoxy)ethyl)-2-oxo-1,2-dihydropyridin-4-yl)-4-azaspiro[2.4]heptane-4-carbonyl)-5-oxodecahydro-1H-cyclopropa[d]pyrrolo[1,2-a]azocin-6-yl)carbamoyl)benzo[b]thiophen-5-yl)difluoromethyl)phosphoryl)bis(oxy))bis(ethane-2,1-diyl)) dibutanethioate] here?
A: 100 to 1000 nM
